Reference: paper PMC7893776, “Selecting an anti-malarial clinical candidate from two potent dihydroisoquinolones” (Malaria Journal, 2021)

Legend:
mouse plasma proteins = test: Plasma protein binding (RED), mouse; type: in vitro ADME; conditions: average of 20, 4, 0.8 µM
Procedure: (§1) A Rapid Equilibrium Dialysis (RED) Plate (Thermo Scientific, catalog #, PI-90007) was used to determine the percentage of compound binding to plasma proteins. The positive control for this experiment was propranolol-HCl (10 mM in DMSO) and the internal standard was warfarin (2 µM in methanol). 10 mM stocks of compound in DMSO were diluted with DMSO acetonitrile (1:4, v:v) to three different intermediate concentrations: high (2 mM), medium (0.4 mM) and low (0.08 mM). A 10 mM stock of propranolol in DMSO was diluted to 0.4 mM concentration in DMSO:acetonitrile (1:4 v:v). In 16 Eppendorf tubes, the control (10 µL) or each of three compound dilutions (10 µL) were each added to separate aliquots of mouse, rat, dog, and human plasma (990 µL). In the RED plate, potassium phosphate buffer (500 µL, 0.1 M, pH 7.4, 37 °C) was placed in every white well and each plasma/compound mixture was added to each of 3 red wells. […] The compounds and internal standard were detected by selected ion recording (SIR). Using the peak area ratio of compound to warfarin from the SIR spectra, the percentage of free compound [1] and bound compound [2] were calculated using the following equations: (1) % free = (concentration buffer chamber/concentration plasma chamber)*100, and (2) % bound = 100 − % free.

rat plasma proteins = test: Plasma protein binding (RED), rat; type: in vitro ADME; conditions: average of 20, 4, 0.8 µM
Procedure: as §1

[1] = Rat single oral dose toxicology / toxicokinetic study; type: in vivo, male Sprague Dawley rats
Procedure: The high dose levels of both compounds (50, 100, 200 mg/kg, PO, (+)-SJ733/311) were also independently tested by SRI, with a single oral gavage administration. Blood (through jugular vein) and urine were collected at time points up to 72 and 24 h post dose, respectively. Supernatant plasma was removed following centrifugation and stored frozen (− 70 °C) until LC–MS analysis. For toxicology studies, male Sprague Dawley rats were administered 50, 100, 250, 500, or 750 mg/kg of (r)-SJ733 or (r)-SJ311 by oral gavage (one dose per animal). Body weights were recorded on Day 1 prior to dose administration and on Day 4. Blood samples (400 µL) were collected at 4 and 24 h post drug administration from the retro-orbital sinus. Potassium EDTA treated plasma was collected and kept frozen at -70 °C for bioanalytical analysis. Rat samples from the toxicokinetic study at SRI were analyzed at SJCRH using the method described above. The calibration range was from 47 to 26,000 ng/mL for plasma.

human plasma proteins = test: Plasma protein binding (RED), human; type: in vitro ADME; conditions: average of 20, 4, 0.8 µM
Procedure: as §1

Caco-2 cells = test: Caco-2 permeability; type: in vitro ADME; conditions: for Caco-2 Efflux Ratio: B→A / A→B
Procedure: Caco-2 cells were maintained at 37 °C in a humidified incubator with an atmosphere of 5% CO2. The cells were cultured in Eagle's Minimum Essential Medium (EMEM) containing 20% fetal bovine serum (FBS) in 75 cm^2 flasks, supplemented with 100 units/ml of penicillin and 100 µg/mL of streptomycin. The Caco-2 cells were seeded onto inserts of a 96-well plate (HTS-Transwell inserts, surface area: 0.143 cm^2, Corning) at a cell density of 0.5 × 10^5 cells/insert. The culture medium was replaced every 2 days, and the cells were maintained for 7 days at 37 °C and 5% CO2. Caco-2 cell monolayers with trans epithelial electrical resistance (TEER) values greater than 400 Ω cm^2 were used for the subsequent assays. The permeability assay was initiated by adding an appropriate volume of HBSS/HEPES containing test compounds to either the apical (A to B) or basolateral (B to A) side of the monolayer, then adding the blank HBSS/HEPES buffer in the receiving compartment, the basolateral or apical side of the monolayer. The Caco-2 cell monolayers were then incubated for 2 h at 37 °C. To make a sample plate, fractions were collected from the basolateral side or apical side and quenched by adding onefold volume of acetonitrile with internal standard (2 µM warfarin) to each well. In a reference plate, the above HBSS/HEPES buffer containing test compounds were diluted with quenching solvent the same as that in the sample plate. 10 µL of supernatants were injected and analysis by UPLC/MS (Waters; Milford, MA). The test compound concentrations were quantified by comparing the sample well to the reference well via peak areas. The A→B (or B→A) apparent permeability coefficients (Papp, 10^–6 cm/s) of each compound were calculated using the equation, Papp = dQ/dt × 1/AC0. The flux of a drug across the monolayer was dQ/dt (µmol/s). The initial drug concentration on the apical or basolateral side was C0 (µM). The surface area of the monolayer was A (cm^2). The efflux ratio is the ratio of apparent permeability for a test compound in the basolateral to apical (B → A) direction relative to that in the A → B direction. All compounds were tested in triplicate.

Row | SMILES | % bound (mouse plasma proteins) [%] | % bound (rat plasma proteins) [%] | clinical observation ([1]; rats, 100 and 500 mg/kg groups, single oral gavage) | % bound (human plasma proteins) [%] | Permeability, Caco-2 (Caco-2 cells; Apical to Basal) | Permeability, Caco-2 (Caco-2 cells; Basolateral to Apical) | Caco-2 Efflux Ratio (Caco-2 cells) | AUCinf at the highest event free dose ([1]; rat) | adverse events ([1]; rat, at any dose) | provable therapeutic window ([1]; rat, in vivo)
1 | N#Cc1cc(NC(=O)C2c3ccccc3C(=O)N(CC(F)(F)F)C2c2cn[nH]c2)ccc1F (racemic) [(r)-SJ311] | 93.7 ± 0.7 | 91.0 ± 0.1 | Ruffled fur | 95.3 ± 0.6 | 12.5 ± 0.7 10^–6 cm/s | 16.6 ± 2.0 10^–6 cm/s | 1.34 ± 0.21 |  |  | 
2 | N#Cc1cc(NC(=O)C2c3ccccc3C(=O)N(CC(F)(F)F)C2c2cccnc2)ccc1F (racemic) [(r)-SJ733] | 95.7 ± 0.6 | 90.0 ± 1.7 |  | 94.3 ± 0.6 | 9.4 ± 1.6 10^–6 cm/s | 11.0 ± 1.6 10^–6 cm/s | 1.17 ± 0.04 |  |  | 
3 | N#Cc1cc(NC(=O)[C@H]2c3ccccc3C(=O)N(CC(F)(F)F)[C@@H]2c2cccnc2)ccc1F (racemic) [SJ733] |  |  |  |  |  |  |  | over 217 µM h | No adverse events | above 40
